This passage reports Ranking score and B-score functional assay results from paper PMC5681660, “Reduced hepatitis B and D viral entry using clinically applied drugs as novel inhibitors of the bile acid transporter NTCP” (Scientific Reports, 2017).

The assay addresses T1, human NTCP (Homo sapiens, UniProt Q14973).
T1 sequence (Q14973 1-349): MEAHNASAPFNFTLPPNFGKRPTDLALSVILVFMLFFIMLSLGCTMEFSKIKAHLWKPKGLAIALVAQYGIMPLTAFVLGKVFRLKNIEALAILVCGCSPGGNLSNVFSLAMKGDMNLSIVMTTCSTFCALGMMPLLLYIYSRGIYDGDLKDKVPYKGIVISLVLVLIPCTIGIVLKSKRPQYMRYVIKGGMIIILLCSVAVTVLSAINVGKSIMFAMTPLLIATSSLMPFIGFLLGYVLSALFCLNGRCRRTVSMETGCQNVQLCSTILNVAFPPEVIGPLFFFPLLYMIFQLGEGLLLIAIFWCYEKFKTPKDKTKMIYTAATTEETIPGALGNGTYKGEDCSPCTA
Description: Screening taurocholate uptake assay (96-well, [14C]taurocholate, 10 µM drug). Conditions: for B-score functional assay: screening taurocholate uptake, 10 µM drug.

[1] abbreviates: ranking over the functional and the binding screening assay.
[2] abbreviates: combined ranking of functional and binding screening assays.

Structures can show the parent of a compound that is named as a salt.

For the compound `CC(=O)Nc1ccc(OCC(O)CNC(C)C)cc1` (stereo not drawn) [Practolol], the B-score functional assay is -2.472. For the same compound, the Ranking score under setting [1] is recorded as 213.764.
The matching figures for `C#C[C@]1(O)CC[C@H]2[C@@H]3CCc4cc(O)ccc4[C@H]3CC[C@@]21C` [Ethinylestradiol]: -1.799 and 213.127.
The matching figures for `CN[C@@H]1[C@H](O)[C@H](NC)[C@H]2O[C@@]3(O)C(=O)C[C@@H](C)O[C@H]3O[C@@H]2[C@H]1O.Cl.Cl` [Spectinomycin dihydrochloride]: -0.865 and 126.98.
The matching figures for `COc1cc2nc(N(C)CCCNC(=O)C3CCCO3)nc(N)c2cc1OC` (stereo not drawn) [Alfuzosin hydrochloride]: -2.737 and 237.095.
For the compound `CN(C)CCOc1ccc(/C(=C(/CCCl)c2ccccc2)c2ccccc2)cc1` [Toremifene], the B-score functional assay is on record as 0.057. In addition, under setting [2], the Ranking score came out at 537.181.
The matching figures for `CC(C)Oc1ccc2c(=O)c(-c3ccccc3)coc2c1` [Ipriflavone]: 2.878 and 535.848.
The compound `NS(=O)(=O)c1cc(C(=O)O)cc(N2CCCC2)c1Oc1ccccc1` [Piretanide] gave a B-score functional assay of -0.384. The Ranking score under setting [2] amounted to 548.109.
Taken in the same sequence, the figures for `NC(=O)c1ccc[n+]([C@@H]2O[C@H](COP(=O)([O-])OP(=O)(O)OC[C@H]3O[C@@H](n4cnc5c(N)ncnc54)[C@H](O)[C@@H]3O)[C@@H](O)[C@H]2O)c1` [Nadide] were 0.371 and 475.971.
Taken in the same sequence, the figures for `Nc1nc2c(ncn2CCC(CO)CO)c(=O)[nH]1` [Penciclovir] were -0.886 and 573.819.
In the case of `NNc1nncc2ccccc12` [Hydralazine hydrochloride], the B-score functional assay was -0.84. Besides, the Ranking score under setting [2] is given as 587.239.
As for `C[C@H](CCC(=O)O)[C@H]1CC[C@H]2[C@@H]3CC[C@@H]4C[C@H](O)CC[C@]4(C)[C@H]3CC[C@]12C` [Lithocholic acid], the B-score functional assay is -6.112. This compound also yielded a Ranking score under setting [1] of 22.4499.
With `CN(CCCN1c2ccccc2CCc2ccccc21)CC(=O)c1ccc(Cl)cc1` [Lofepramine], the B-score functional assay stood at 0.81. Under setting [2], the Ranking score turned out to be 479.183.
In the case of `CNCC(O)c1ccc(OC(=O)C(C)(C)C)c(OC(=O)C(C)(C)C)c1` (stereo not drawn) [Dipivefrin hydrochloride], the Ranking score under setting [2] was 1200.98. Also, the B-score functional assay (B-score) amounted to 1.926.
Take `CCC(COC(=O)c1cc(OC)c(OC)c(OC)c1)(c1ccccc1)N(C)C` (stereo not drawn) [Trimebutine]: the B-score functional assay is recorded as -0.018. Also, the Ranking score under setting [2] is given as 579.884.
`Oc1ccc(C2CNCCc3c2cc(O)c(O)c3Cl)cc1` (stereo not drawn) [Fenoldopam] came in with a B-score functional assay of 0.056. The Ranking score under setting [1] is 222.621.
Compound `O=C(O)CCCC[C@@H]1SC[C@@H]2NC(=O)N[C@@H]21` [Biotin] gave a B-score functional assay of -2.274. For the same compound, under setting [1], the Ranking score is given as 66.9328.
As to `CCCCOc1cc(C(=O)NCCN(CC)CC)c2ccccc2n1` [Dibucaine], under setting [2], the Ranking score is on record as 1210.75. Further, the B-score functional assay (B-score) came out at 1.579.
As to `CC(=O)O[C@]1(C(C)=O)CC[C@H]2[C@@H]3C=C(Cl)C4=CC(=O)CC[C@]4(C)[C@H]3CC[C@@]21C` [Chlormadinone acetate], the B-score functional assay is recorded as -1.751. Also, under setting [1], the Ranking score was found to be 87.43.
`O=C1CCc2ccc(OCCCCN3CCN(c4cccc(Cl)c4Cl)CC3)cc2N1` [Aripiprazole]: the B-score functional assay came out at 1.007. In addition, the Ranking score under setting [2] is listed as 580.393.
As to `CN1CCN(c2c(F)cc3c(=O)c(C(=O)O)cn(CCF)c3c2F)CC1` [Fleroxacin], the Ranking score under setting [2] is on record as 1148.84. The compound further had a B-score functional assay (B-score) of 1.693.
Under setting [1], `CNCCC(Oc1ccc(C(F)(F)F)cc1)c1ccccc1` (stereo not drawn) [Fluoxetine hydrochloride] showed a Ranking score of 265.518.
Compound `CC(C)(C)C(=O)OCOC(=O)[C@@H]1N2C(=O)[C@@H](NC(=O)[C@H](N)c3ccccc3)[C@H]2SC1(C)C` [Pivampicillin] came in with a B-score functional assay of 2.096. This compound also showed a Ranking score under setting [1] of 199.66.
In turn, `CC[C@@H](CO)NCCN[C@@H](CC)CO` [Ethambutol dihydrochloride] returned a B-score functional assay of -3.373. The compound also returned a Ranking score under setting [1] of 218.945.
Take `COc1cc([C@@H]2c3cc4c(cc3[C@H](O)[C@H]3COC(=O)[C@H]23)OCO4)cc(OC)c1OC` [Podophyllotoxin]: under setting [2], the Ranking score stood at 1193.91. Under “B-score”, this compound gave a B-score functional assay of 1.781.
On to `CC(=O)N(CC(O)CN(C(C)=O)c1c(I)c(C(=O)NCC(O)CO)c(I)c(C(=O)NCC(O)CO)c1I)c1c(I)c(C(=O)NCC(O)CO)c(I)c(C(=O)NCC(O)CO)c1I` (stereo not drawn) [Iodixanol], for which the B-score functional assay turned out to be 2.051. This compound displayed a Ranking score under setting [1] of 270.78.
Regarding `CC(=O)[C@@]1(O)CC[C@H]2[C@@H]3C[C@H](C)C4=CC(=O)C=C[C@]4(C)[C@@]3(F)[C@@H](O)C[C@@]21C` [Fluorometholone], the B-score functional assay is on record as -0.26. In addition, the Ranking score under setting [2] turned out to be 616.409.
Taken in the same sequence, the figures for `CN(C)[C@@H]1C(O)=C(C(=O)NCNCCCC[C@H](N)C(=O)O)C(=O)[C@@]2(O)C(O)=C3C(=O)c4c(O)cccc4[C@@](C)(O)[C@H]3C[C@@H]12` [Lymecycline] were 0.716 and 591.633.
For the compound `O=c1c2ccccc2[se]n1-c1ccccc1` [Ebselen], the B-score functional assay was -4.734. The compound also displayed a Ranking score under setting [1] of 12.2474.
As to `NC(N)=NCc1cccc(I)c1.NC(N)=NCc1cccc(I)c1.O=S(=O)(O)O` [Iobenguane sulfate], the Ranking score under setting [2] stood at 1171.02. Further, for the setting “B-score”, the B-score functional assay was 1.016.
In turn, `CC(=O)N(CC(C)C(=O)O)c1c(I)cc(I)c(N)c1I` (stereo not drawn) [Iocetamic acid] registered a B-score functional assay of -0.783. In addition, the Ranking score under setting [1] was determined as 232.635.
`OCCN1C[C@H](O)[C@@H](O)[C@H](O)[C@H]1CO` [Miglitol] had a B-score functional assay of -1.145. Besides, the Ranking score under setting [2] was 510.427.
Taken in the same sequence, the figures for `Cc1cccc(CN2CCN(C(c3ccccc3)c3ccc(Cl)cc3)CC2)c1.Cl.Cl` (stereo not drawn) [Meclozine dihydrochloride] were -1.455 and 482.469.
In the case of `C[C@H](CCC(=O)O)[C@H]1CC[C@H]2[C@@H]3[C@@H](O)C[C@@H]4C[C@H](O)CC[C@]4(C)[C@H]3CC[C@]12C` [Urosiol], the B-score functional assay is -4.542. This compound displayed a Ranking score under setting [1] of 126.965.
Taken in the same sequence, the figures for `Clc1ccc(Nc2nnc(Cc3ccncc3)c3ccccc23)cc1` [Vatalanib] were -2.979 and 181.191.
Taken in the same sequence, the figures for `C=C1c2cccc(O)c2C(=O)C2=C(O)[C@]3(O)C(=O)C(C(N)=O)=C(O)[C@@H](N(C)C)[C@@H]3[C@@H](O)[C@H]12` [Methacycline hydrochloride] were 0.118 and 244.434.
Compound `Cl.O=C1OC(CN2CCOCC2)CN1/N=C/c1ccc([N+](=O)[O-])o1` (stereo not drawn) [Furaltadone hydrochloride] showed a B-score functional assay of 0.718. For the same compound, under setting [2], the Ranking score turned out to be 592.766.
`CN1CCC(OC(c2ccccc2)c2ccccc2)CC1` [Diphenylpyraline hydrochloride]: the B-score functional assay is -0.425. Besides, the Ranking score under setting [1] stood at 142.127.
Regarding `CN1CCCN=C1/C=C/c1cccs1.O=C(O)C(O)C(O)C(=O)O` [Pyrantel tartrate], the B-score functional assay is listed as -0.111. The Ranking score under setting [2] is listed as 600.829.
`C[C@]12CC[C@H]3C(=CCc4cc(O)ccc43)[C@@H]1CCC2=O` [Equilin] showed a B-score functional assay of -2.643. Under setting [1], this compound had a Ranking score of 264.641.
`COC1=CC(=O)C[C@@H](C)[C@]12Oc1c(Cl)c(OC)cc(OC)c1C2=O` [Griseofulvin] returned a B-score functional assay of -0.69. The Ranking score under setting [2] is 477.468.
The compound `CN1CCN(CCCN2c3ccccc3Sc3ccc(Cl)cc32)CC1` [Prochlorperazine dimaleate] gave a B-score functional assay of -4.76. For the same compound, the Ranking score under setting [1] amounted to 89.1291.
As for `CCCC(=O)Nc1ncnc2c1ncn2[C@@H]1O[C@@H]2COP(=O)([O-])O[C@H]2[C@H]1OC(=O)CCC.[Na+]` [Bucladesine sodium salt], the B-score functional assay was -0.403. For the same compound, under setting [2], the Ranking score is 477.022.
Taken in the same sequence, the figures for `COCCCC/C(=N\OCCN)c1ccc(C(F)(F)F)cc1` [Fluvoxamine maleate] were 0.566 and 486.369.
The compound `C[C@@H]1CCC[C@H](C)N1NC(=O)c1ccc(Cl)c(S(N)(=O)=O)c1` [Clopamide] had a B-score functional assay of -0.164. For the same compound, under setting [1], the Ranking score was 216.069.
The matching figures for `CS(=O)(=O)OCCCCOS(C)(=O)=O` [Busulfan]: -1.026 and 269.796.
Regarding `CCOC(=O)NNc1nncc2ccccc12` [Todralazine hydrochloride], the B-score functional assay is -1.372. The compound further had a Ranking score under setting [1] of 269.251.
Take `OC(CCN1CCCCC1)(c1ccccc1)C1CC2C=CC1C2` (stereo not drawn) [Biperiden hydrochloride]: the B-score functional assay is -0.229. Besides, the Ranking score under setting [2] was 526.369.
